In US9469632B2, “6-substituted-3H-1,3-benzothiazol-2-one compounds as TARP-gamma 8 dependent AMPA receptor antagonists” (Eli Lilly and Company, priority 2014, dated 2016):
“And” between values parts separate entries of the source, which are not always exact repeats. Equal values may be shown once.

Legend:
formalin induced pain = assay: Manual formalin induced pain model; assay type: in vivo; conditions: mice, p.o.
Protocol: The manual formalin induced pain model is well known for screening compounds for analgesic properties (Mogil J. S. et al., Heritability of nociception I: Responses of 11 inbred mouse strains on 12 measures of nociception. Pain 80 (1999) 67-82). The assay is performed in Plexiglas® boxes approx. 10 cm×10 cm×10 cm in size. A minor placed at the back of the cage allows the unhindered observation of the formalin injected paw. Non-fasted male mice (Harlan (HSD) CD1-Icr) are placed individually in the cubicles at least 60 min. prior to the experiment. All testing is conducted between 08:00 and 16:00 hr. and the testing room temperature is maintained at 21-23° C. […] Formalin (20 uL of a 5% solution in 0.9% saline) is injected subcutaneously into the plantar surface of the left hind paw with a 27 gauge needle. Observation starts immediately after the formalin injection. Formalin induced pain is quantified by recording the number of seconds each licking event lasts in 5 min intervals. The pain scoring is measured for 60 min. after the formalin injection. Two phases of pain behavior are observed as previously described (Wheeler-Aceto, H., Porreca, F. and Cowan, A., The rat paw formalin test: comparison of noxious agents, Pain 40 (1990) 229-238). The early phase starts immediately after the formalin injection and lasts approximately 5 min., followed by the late phase that starts between minutes 10-15 with a maximum response typically observed around 25-40 min after the formalin injection. After the 60 min. observation period, animals are sacrificed with CO2 followed by cervical dislocation. Of the different scoring parameters reported for the formalin test, the total time spent licking and biting the injected paw is considered to be most relevant. (Abbott et al., The formalin test: scoring properties of the first and second phases of the pain response in rats, Pain 60 (1995) 91-102; Coderre et al., The formalin test: a validation of the weighted-scores method of the behavioral pain rating, Pain 54 (1993) 43-50).) The early phase score is the sum of time spent licking (seconds) from time 0 to 5 min. The late phase score is obtained by adding the total number of seconds spent licking from minute 15 to min 55 of the observation period. Data are presented as means with standard errors of means (±SEM). Data are evaluated by one-way analysis of variance (ANOVA) and the appropriate contrasts analyzed by Dunnett “t” test for two sided comparisons. Differences are considered to be significant if the P-value is less than 0.05. (Abbott, supra.; Coderre, supra.; and Wheeler-Aceto, supra.)

[1] = target: T1, GluA1 flip isoform devoid of TARP (Homo sapiens, UniProt P42261); assay: FLIPR antagonist functional assay, GluA1 flip expressed without TARP in CHO-S cells; assay type: cell-based; conditions: glutamate 45 μM plus CTZ 20 μM, assay limit of 9260 nM
T1 construct: expressed in transfected cells; host or cells: CHO-S (Invitrogen), transient transfection
T1 sequence (P42261 19-906 isoform P42261-2 limits assumed): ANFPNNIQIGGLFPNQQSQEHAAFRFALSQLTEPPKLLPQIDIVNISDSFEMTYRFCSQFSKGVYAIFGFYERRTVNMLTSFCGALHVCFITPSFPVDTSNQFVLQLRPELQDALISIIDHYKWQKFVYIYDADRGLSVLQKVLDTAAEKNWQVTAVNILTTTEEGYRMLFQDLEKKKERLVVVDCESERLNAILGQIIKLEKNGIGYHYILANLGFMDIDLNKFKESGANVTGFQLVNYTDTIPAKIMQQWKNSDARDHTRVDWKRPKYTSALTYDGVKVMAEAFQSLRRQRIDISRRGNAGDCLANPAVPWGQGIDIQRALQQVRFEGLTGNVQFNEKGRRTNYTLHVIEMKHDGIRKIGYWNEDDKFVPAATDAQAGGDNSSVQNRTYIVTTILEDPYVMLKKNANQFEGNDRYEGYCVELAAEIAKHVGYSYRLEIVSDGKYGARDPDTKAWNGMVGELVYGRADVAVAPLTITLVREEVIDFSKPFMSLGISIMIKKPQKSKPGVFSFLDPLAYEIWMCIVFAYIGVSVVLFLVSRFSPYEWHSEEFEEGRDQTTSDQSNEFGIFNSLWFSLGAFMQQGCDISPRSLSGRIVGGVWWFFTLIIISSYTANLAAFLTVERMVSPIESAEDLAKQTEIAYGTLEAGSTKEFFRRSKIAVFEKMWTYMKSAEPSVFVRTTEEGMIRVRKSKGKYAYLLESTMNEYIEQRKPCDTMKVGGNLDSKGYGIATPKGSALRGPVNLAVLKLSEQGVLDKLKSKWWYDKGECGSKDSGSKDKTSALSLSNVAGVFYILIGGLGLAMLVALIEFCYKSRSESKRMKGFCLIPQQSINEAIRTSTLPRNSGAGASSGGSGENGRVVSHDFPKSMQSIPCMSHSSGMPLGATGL
Protocol: (§1) Briefly, CHO-S (Invitrogen) cells are grown in suspension in 50/50 custom media to a density of 1×10^7 cells/ml. (50/50 custom media is a low calcium media made as a 1:1 (v/v) mixture of CD CHO media (Gibco #10743) and a custom complete media. The custom complete media is made by adding 0.40 mg/L tropolone, 5.00 mg/L insulin, 20 mM HEPES, and 0.075% Pluronic® F68 to a custom basal media having the following formula: (values as mg/L unless otherwise specified) 11.01 anhydrous calcium chloride, 0.050 ferric nitrate-9H2O, 0.420 ferrous sulfate-7H2O, 28.64 anhydrous magnesium chloride, 48.84 anhydrous magnesium sulfate, 312.14 KCl, 5505.96 NaCl, 62.57 monobasic sodium phosphate, 71.28 anhydrous dibasic sodium phosphate, 0.432 zinc sulfate-7H2O, 10.0 ethanolamine HCl, 6000 D-glucose (dextrose), 0.210 DL lipoic acid thioctic, 0.081 putrescine 2 HCl, 4.78 sodium hypoxanthine, 220.24 sodium pyruvate, 0.730 thymidine, 8.90 L-alanine, 211.23 L-arginine HCl, 15.02 L-asparagine H2O, 13.31 L-aspartic acid, 62.67 cystine 2 HCl, 7.360 L-glutamic acid, 146.16 L-Glutamine, 30.0 gylicine, 42.04 L-histidine HCl 2 H2O, 105.11 L-isoluecine, 105.11 L-luecine, 146.16 L-lysine HCl, 30.03 L-methionine, 66.07 L-phenylalanine, 17.27 L-proline, 42.04 L-serine, 95.1 L-threonine, 16.02 L-typtophan, 104.11 L-tyrosine disodium salt, 94.1 L-valine, 8.99 choline chloride, 4.00 folic acid, 12.61 I inositol, 4.00 niacinamide, 4.00 pyridoxal HCl, 0.031 pyridoxine HCl, 0.400 riboflavin, 4.00 sodium pantothenate, 4.00 thiamine HCl, 0.680 vitamin B 12, and 2200 sodium bicarbonate.) Cells are centrifuged at 1000×g for […] and resuspended in fresh 50/50 custom media at 2×10^6 cells/ml. For batch transfection, 2 mg of total DNA(s) is used for each liter of cells. For GluA1-γ8 transfection of CHO-S cells, human GluA1 Qflop-Cacng8-pBudCE4.1 DNA (Qiagen) and human EAAT3 pAN104 DNA (Qiagen, a […]) are mixed in a ratio of 2:3. For GluA1-γ2 transfection of CHO-S cells, human GluA1 Qflop-Cacng2-pBudCE4.1 (Qiagen) is used. For GluA1 flip transfection of CHO-S cells, human GluA1 flip pcDNA3.1 DNA (Qiagen) is used. DNA(s) and FreeStyle™ MAX Reagent (Invitrogen cat#16447-500) are added to basal custom media (see above) in the proportions of 10 μg total DNA: 10 plFreeStyleTm MAX Reagent: 1 ml media, to form a DNA complex. […]
(§2) Frozen transfected CHO-S cells expressing AMPA receptors are thawed and plated in Dulbecco's Modified Eagle Media (DMEM media) (Gibco, cat#11960) containing 5% dialyzed Fetal Bovine Serum (Gibco, cat#26400-036) and 20 mM HEPES at 50,000 cells per well in 384-well Poly-D-lysine coated plates (Becton Dickinson, cat#354663) and cultured overnight at 37° C. On the day of an experiment, two fluorescence dye loading buffers are prepared. […]

[2] = target: T2, TARP γ2 dependent GluA1 flop receptors (Homo sapiens, UniProt P42261+Q9Y698); assay: FLIPR antagonist functional assay, GluA1 flop co-expressed with TARP γ2 in CHO-S cells; assay type: cell-based; conditions: glutamate 45 μM plus CTZ 20 μM, assay limit of 9260 nM
T2 construct: expressed in transfected cells; host or cells: CHO-S (Invitrogen), transient transfection
T2 sequence (P42261 19-906): as the sequence (P42261 19-906 isoform P42261-2 limits assumed) above, with G740N, S750N, V754L, S760N, K772G, D773G, S774G, G775D counted along it
T2 sequence (Q9Y698 whole entry): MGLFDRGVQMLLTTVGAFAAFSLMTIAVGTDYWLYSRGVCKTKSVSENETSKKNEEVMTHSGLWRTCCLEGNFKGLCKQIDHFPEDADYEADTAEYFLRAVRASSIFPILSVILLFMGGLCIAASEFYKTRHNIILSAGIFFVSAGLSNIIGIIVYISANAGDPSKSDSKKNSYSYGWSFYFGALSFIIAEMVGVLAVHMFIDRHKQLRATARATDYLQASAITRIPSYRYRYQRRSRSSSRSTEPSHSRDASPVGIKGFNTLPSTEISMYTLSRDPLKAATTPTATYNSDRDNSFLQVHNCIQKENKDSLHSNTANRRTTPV
Protocol: as §1, §2

[3] = target: T3, TARP γ8 dependent GluA1 flop receptors (Homo sapiens, UniProt P42261+Q8WXS5); assay: FLIPR antagonist functional assay, GluA1 flop co-expressed with TARP γ8 in CHO-S cells; assay type: cell-based; conditions: glutamate 45 μM plus CTZ 20 μM, read-out: relative IC50, inhibition of glutamate plus CTZ activation of TARP γ8 dependent GluA1 flop receptors
T3 construct: expressed in transfected cells; host or cells: CHO-S (Invitrogen), transient transfection
T3 sequence (P42261 19-906): as the sequence (P42261 19-906 isoform P42261-2 limits assumed) above, with G740N, S750N, V754L, S760N, K772G, D773G, S774G, G775D counted along it
T3 sequence (Q8WXS5 whole entry): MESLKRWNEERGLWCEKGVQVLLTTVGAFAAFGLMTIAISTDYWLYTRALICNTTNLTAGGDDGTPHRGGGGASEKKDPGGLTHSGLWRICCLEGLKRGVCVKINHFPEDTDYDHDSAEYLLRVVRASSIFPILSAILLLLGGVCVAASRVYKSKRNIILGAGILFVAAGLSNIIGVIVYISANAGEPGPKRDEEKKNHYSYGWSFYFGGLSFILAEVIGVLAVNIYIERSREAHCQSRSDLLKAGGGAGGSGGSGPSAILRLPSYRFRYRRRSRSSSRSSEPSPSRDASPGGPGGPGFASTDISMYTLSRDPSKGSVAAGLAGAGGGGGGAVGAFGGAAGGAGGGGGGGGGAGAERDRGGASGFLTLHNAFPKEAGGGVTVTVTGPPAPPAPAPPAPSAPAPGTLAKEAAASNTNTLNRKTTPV
Protocol: as §1, §2

COc1cccc(C2(O)CCCCC2CN(C)C)c1 (centres unmarked) [Tramadol, tramadol, reference compound]
Percent reversal of Late Phase Licking (formalin induced pain; positive control 80 mg/Kg Tramadol, one value per experiment (Examples 3, 27, 30, 55)): 94.7% and 86.97% and 57.96% and 81.84%

CC(O)COCc1ccc(-n2ccc(C(C)c3ccc4[nH]c(=O)sc4c3)n2)nc1 (single isomer, unassigned) [Example 55, 6-[1-[1-[5-(2-hydroxypropoxymethyl)-2-pyridyl]pyrazol-3-yl]ethyl]-3H-1,3-benzothiazol-2-one]
Percent reversal of Late Phase Licking (formalin induced pain; 3 mg/Kg): 25.64% | Percent reversal of Late Phase Licking (formalin induced pain; 10 mg/Kg): 31.08% | Percent reversal of Late Phase Licking (formalin induced pain; 30 mg/Kg): 63.47%

CC(c1ccc2[nH]c(=O)sc2c1)c1ccn(-c2ccc(CCC(C)(C)O)cn2)n1 (single isomer, unassigned) [Example 30]
Percent reversal of Late Phase Licking (formalin induced pain; 3 mg/Kg): 8.88% | Percent reversal of Late Phase Licking (formalin induced pain; 10 mg/Kg): 11.77% | Percent reversal of Late Phase Licking (formalin induced pain; 30 mg/Kg): 47.77% | Percent reversal of Late Phase Licking (formalin induced pain; 60 mg/Kg): 62.14%

CC(c1ccc2[nH]c(=O)sc2c1)c1csc(-c2ccccn2)n1 (single isomer, unassigned) [Example 53, 6-[1-(2-pyridin-2-yl-thiazol-4-yl)-ethyl]-3H-benzothiazol-2-one]
IC50 [1]: > 9.26 µM | IC50 [2]: > 9.26 µM | IC50 [3]: 65.6 ± 14.9 nM

CC(c1ccc2[nH]c(=O)sc2c1)c1ccn(-c2ccc(N3CCC(O)CC3)cn2)n1 (single isomer, unassigned) [Example 3, 6-(1-(1-(5-(4-hydroxypiperidin-1-yl)pyridin-2-yl)-1H-pyrazol-3-yl)ethyl)benzo[d]thiazol-2(3H)-one]
IC50 [1]: > 9.26 µM | IC50 [2]: > 9.26 µM | IC50 [3]: 91.1 ± 48.1 nM | Percent reversal of Late Phase Licking (formalin induced pain; 1 mg/Kg): 32.3% | Percent reversal of Late Phase Licking (formalin induced pain; 3 mg/Kg): 43.8% | Percent reversal of Late Phase Licking (formalin induced pain; 10 mg/Kg): 66.2%

CC(=O)c1ccc(-c2csc(C(C)c3ccc4[nH]c(=O)sc4c3)n2)nc1 (single isomer, unassigned) [Example 54, 6-[1-[4-(5-acetyl-2-pyridyl)thiazol-2-yl]ethyl]-3H-1,3-benzothiazol-2-one]
IC50 [1]: > 9.26 µM | IC50 [2]: > 9.26 µM | IC50 [3]: 82.6 ± 56.2 nM

C[C@@H](c1ccc2[nH]c(=O)sc2c1)c1ccn(-c2ccc(CCO)cn2)n1 (single isomer, unassigned) [Example 27]
IC50 [1]: > 9.26 µM | IC50 [2]: > 9.26 µM | IC50 [3]: 61.6 ± 23.5 nM | Percent reversal of Late Phase Licking (formalin induced pain; 10 mg/Kg): 24.27% | Percent reversal of Late Phase Licking (formalin induced pain; 30 mg/Kg): 57.15% | Percent reversal of Late Phase Licking (formalin induced pain; 60 mg/Kg): 62.14%
